Test results published in US20090124643A1, “Use of a Cannabinoid CB1 Receptor Antagonist for Preparation of Drugs Useful for the Prevention and Treatment of Benign Prostatic Hypertrophy” (SANOFI-AVENTIS, priority 2006, published 2009).

Tests used:
testosterone-induced BPH = assay: Treatment of testosterone-induced BPH in rats; assay type: in vivo, rat; details: for Decrease in volume of total prostate / Decrease in volume of ventral prostate / Decrease in weight of total prostate / Decrease in weight of ventral prostate: % of the increase preinduced with testosterone
Procedure: Treatment of Testosterone-Induced BPH in Rats
Male rats are implanted with catheters and receive 18.75 mg per rat of testosterone, subcutaneously at D-4.
From day D0 to day D21, they receive rimonabant daily, at the dose of either 10 mg/kg per os, or of 30 mg/kg per os.
At day D22, the animals are sacrificed and their prostate is analyzed.
This decrease is evaluated as % of the increase preinduced with testosterone.

[1] = tested on: BPH in spontaneously hypertensive rats; assay: Treatment of BPH in spontaneously hypertensive rats (SHR), qualitative histological study of the prostate lobes; assay type: in vivo, rat; details: SHR rats treated for 28 days, from 10 mg/kg onward
Procedure: Treatment of BPH in Spontaneously Hypertensive Rats
The spontaneously hypertensive rat (SHR) model as described by Golomb et al., J. Androl. (2000), 21(1), 58-64 and Matituahou et al., J. Androl. (2003) 24(2), 263-9 is used.
A qualitative histological study of the prostate lobes is carried out on untreated SHR rats and on rats treated for 28 days with 10 mg/kg or 30 mg/kg of rimonabant.

[2] = rimonabant 10 mg/kg/d per os, D0 to D21
[3] = rimonabant 30 mg/kg/d per os, D0 to D21

Structure (SMILES)	Weight and volume of the prostate (testosterone-induced BPH; chronic treatment with rimonabant, 10 or 30 mg/kg per os daily, D0 to D21)	Decrease in volume of total prostate (testosterone-induced BPH; [2]) [%]	Decrease in volume of ventral prostate (testosterone-induced BPH; [2]) [%]	Decrease in weight of total prostate (testosterone-induced BPH; [2]) [%]	Decrease in weight of ventral prostate (testosterone-induced BPH; [2]) [%]	Decrease in volume of total prostate (testosterone-induced BPH; [3]) [%]	Decrease in volume of ventral prostate (testosterone-induced BPH; [3]) [%]	Decrease in weight of total prostate (testosterone-induced BPH; [3]) [%]	Decrease in weight of ventral prostate (testosterone-induced BPH; [3]) [%]	Histology of the ventral prostate lobes [1]	Increase in weight and volume of the total prostate and of the ventral prostate (testosterone-induced BPH; pretreatment with testosterone 18.75 mg per rat, subcutaneously at D-4)
Cc1c(C(=O)NN2CCCCC2)nn(-c2ccc(Cl)cc2Cl)c1-c1ccc(Cl)cc1 [Rimonabant, N-piperidino-5-(4-chlorophenyl)-1-(2,4-dichlorophenyl)-4-methylpyrazole-3-carboxamide]	significant decrease	64	88	54	87	87	100	73	95	the tissues are normal and non-hypertrophied	
C[C@]12CC[C@H]3[C@@H](CCC4=CC(=O)CC[C@@]43C)[C@@H]1CC[C@@H]2O [testosterone]											approximately 35%
